Assays:
[1] = target: T1, Protein deacetylase HDAC6 (Homo sapiens, UniProt Q9UBN7); test: Inhibition of HDAC6 (unknown origin)
T1 sequence (Q9UBN7 whole entry): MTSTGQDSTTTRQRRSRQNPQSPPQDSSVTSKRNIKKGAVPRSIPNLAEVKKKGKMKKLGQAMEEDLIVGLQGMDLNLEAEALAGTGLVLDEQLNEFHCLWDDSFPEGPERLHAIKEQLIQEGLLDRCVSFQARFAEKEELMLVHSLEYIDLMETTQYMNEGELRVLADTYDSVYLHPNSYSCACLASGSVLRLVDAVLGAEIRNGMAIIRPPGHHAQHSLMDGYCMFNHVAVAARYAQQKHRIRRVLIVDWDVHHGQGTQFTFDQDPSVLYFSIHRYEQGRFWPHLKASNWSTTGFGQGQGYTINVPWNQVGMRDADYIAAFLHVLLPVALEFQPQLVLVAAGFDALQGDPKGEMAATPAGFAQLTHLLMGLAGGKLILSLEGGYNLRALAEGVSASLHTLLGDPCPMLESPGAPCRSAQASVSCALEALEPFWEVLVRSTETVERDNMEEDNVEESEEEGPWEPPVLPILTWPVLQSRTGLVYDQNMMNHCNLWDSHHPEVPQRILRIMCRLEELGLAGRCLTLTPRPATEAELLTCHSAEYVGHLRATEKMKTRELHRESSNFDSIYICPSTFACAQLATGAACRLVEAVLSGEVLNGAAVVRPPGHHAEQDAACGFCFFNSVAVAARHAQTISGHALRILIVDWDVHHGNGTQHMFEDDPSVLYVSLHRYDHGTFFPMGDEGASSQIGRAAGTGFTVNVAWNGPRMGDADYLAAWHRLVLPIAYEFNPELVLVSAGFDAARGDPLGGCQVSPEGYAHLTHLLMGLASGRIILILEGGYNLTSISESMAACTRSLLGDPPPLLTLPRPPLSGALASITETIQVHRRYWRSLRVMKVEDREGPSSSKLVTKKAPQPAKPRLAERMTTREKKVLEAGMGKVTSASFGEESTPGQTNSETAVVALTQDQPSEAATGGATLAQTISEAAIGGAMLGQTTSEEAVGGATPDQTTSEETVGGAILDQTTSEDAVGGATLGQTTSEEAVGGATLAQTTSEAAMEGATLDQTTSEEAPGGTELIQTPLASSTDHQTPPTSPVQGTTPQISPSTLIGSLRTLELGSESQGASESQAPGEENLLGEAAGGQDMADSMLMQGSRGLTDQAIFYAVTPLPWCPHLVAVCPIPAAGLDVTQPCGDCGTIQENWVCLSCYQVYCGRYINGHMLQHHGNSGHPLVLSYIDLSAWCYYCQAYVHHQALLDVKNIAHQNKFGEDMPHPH

[2] = target: Histone deacetylase 1 (Homo sapiens, UniProt Q13547); test: Inhibition of HDAC1 (unknown origin)
Chain of Histone deacetylase 1 (Q13547 whole entry): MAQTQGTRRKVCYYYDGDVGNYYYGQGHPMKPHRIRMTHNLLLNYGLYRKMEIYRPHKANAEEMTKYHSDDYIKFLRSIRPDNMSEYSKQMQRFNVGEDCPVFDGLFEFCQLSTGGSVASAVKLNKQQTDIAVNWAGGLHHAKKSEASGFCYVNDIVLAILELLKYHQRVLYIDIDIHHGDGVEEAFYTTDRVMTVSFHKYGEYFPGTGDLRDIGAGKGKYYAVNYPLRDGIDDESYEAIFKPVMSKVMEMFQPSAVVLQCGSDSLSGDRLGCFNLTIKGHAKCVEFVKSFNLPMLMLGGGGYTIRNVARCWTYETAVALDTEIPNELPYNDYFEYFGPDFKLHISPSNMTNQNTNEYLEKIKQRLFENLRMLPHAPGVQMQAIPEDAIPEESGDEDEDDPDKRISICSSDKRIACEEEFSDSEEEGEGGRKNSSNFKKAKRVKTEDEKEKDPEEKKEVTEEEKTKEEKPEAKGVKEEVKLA

| IC50 [1] [nM] | IC50 [2] [nM] | SMILES |
| --- | --- | --- |
| 12 | 280 | O=C(CCCCCN1C(=O)c2cccc3c(OCc4ccc(C(F)(F)F)cc4)ccc(c23)C1=O)NO |
| 1120 | 9500 | CCCNc1ccc2c3c(cccc13)C(=O)N(CCCC(=O)NO)C2=O |

Reference: ChEMBL document CHEMBL4834461, “Intracellular fluorescence competition assay for inhibitor engagement of histone deacetylase” (Bioorg Med Chem Lett, 2021)
